Values joined by “and” are separate entries in the source; they are usually repeats but may differ in a detail not shown here. Identical values can stand only once. Where a SMILES comes first, the peptide text is derived from it. [ ]: non-standard residue; d: D form. Hyp = O=C(O)[C@@H]1C[C@@H](O)CN1
System: IL-1 beta/IL-1F2
Experiment: Example 9 Luminex, LPS hPBMCs: IL-1 beta/IL-1F2
Type: cell-based, human
Experimental: Treatment Human PBMCs were pretreated with YY-101, YDE-011 and YDE-043 or reference compound; Xiidra® at various concentration (ranging from 1 nM to 100 uM) for 2 h before stimulation. An equal volume of 0.5% DMSO was used as a vehicle control. Then, the cells were treated with LPS at 5 ug/ml. The supernatants from treated cells were harvested at 24 h and placed in a 96 well for Luminex cytokine & chemokine profiling using a Luminex 200 multiplex assay (Luminex; R&D system, USA).
The main study arm with triplicate wells per group in a 24-well plate: • 1. Blank • 2. PBMC: 0.5% DMSO • 3. PBMC+LPS (5 ug/ml) • 4. PBMC+YY-101 100 uM • 5. PBMC+YY-101 10 uM • 6. PBMC+YY-101 1 uM • 7. PBMC+YY-101 0.1 uM • 8. PBMC+YY-101 0.01 uM • 9. PBMC+LPS (5 ug/ml)+Xiidra®100 uM • 10. PBMC+LPS (5 ug/ml)+Xiidra® 10 uM • 11. PBMC+LPS (5 ug/ml)+Xiidra® 1 uM • 12. PBMC+LPS (5 ug/ml)+Xiidra®0.1 uM • 13. PBMC+LPS (5 ug/ml)+Xiidra®0.01 uM • 14. PBMC+LPS (5 ug/ml)+Xiidra®0.001 uM • 15. PBMC+LPS (5 ug/ml)+YY-101 100 uM • 16. PBMC+LPS (5 ug/ml)+YY-101 10 uM • 17. PBMC+LPS (5 ug/ml)+YY-101 1 uM • 18. PBMC+LPS (5 ug/ml)+YY-101 0.1 uM • 19. PBMC+LPS (5 ug/ml)+YY-101 0.01 uM • 20. PBMC+LPS (5 ug/ml)+YY-101 0.001 uM • 21. PBMC+LPS (5 ug/ml)+YDE-011 100 uM • 22. PBMC+LPS (5 ug/ml)+YDE-011 10 uM • 23. PBMC+LPS (5 ug/ml)+YDE-011 1 uM • 24. PBMC+LPS (5 ug/ml)+YDE-011 0.1 uM • 25. PBMC+LPS (5 ug/ml)+YDE-011 0.01 uM • 26. PBMC+LPS (5 ug/ml)+YDE-011 0.001 uM • 27. PBMC+LPS (5 ug/ml)+YDE-043 100 uM • 28. PBMC+LPS (5 ug/ml)+YDE-043 10 uM • 29. PBMC+LPS (5 ug/ml)+YDE-043 1 uM • 30. PBMC+LPS (5 ug/ml)+YDE-043 0.1 uM • 31. PBMC+LPS (5 ug/ml)+YDE-043 0.01 uM • 32. PBMC+LPS (5 ug/ml)+YDE-043 0.001 uM
Multiplex assay was used to measure 30 cytokines and chemokines. The 1:2, 1:10 and 1:200 diluted cell supernatant and serial dilution of the standard were dispensed into a 96 well plate at 50 ul/well. Then, the pre-mixed cocktail of antibody-coated magnetic beads was dispensed at 50 ul/well and incubated at room temperature for 2 h in a horizontal orbital microplate shaker at 800±500 rpm. The beads were washed using a magnetic device to prevent loss. The biotin-antibody was dispensed in 50 ul of each well and incubated at room temperature for 1 h in a shaker at 800±500 rpm. After washing, streptavidin-PE was added at 50 ul/well and incubated at room temperature for 30 min in a shaker under the same conditions. Finally, after washing, wash buffer (100 ul/well) was added to the plate and incubated in a shaker for 2 min. The Luminex™ 200 setting were set according to the manufacturer's protocol. The data was calculated with a standard five-parameter logistic nonlinear regression analysis of the data (xPonent software 4.2, USA). The levels of cytokine/chemokine are normalized to the live cell counts (1×10^5 cells/mL) and presented as concentrations per mL (pg/mL or ng/mL).

[1] = PBMC + LPS(5 ug/ml) + test article 0.001 uM, Mean
[2] = PBMC + LPS(5 ug/ml) + test article 0.001 uM, single replicates
[3] = PBMC + LPS(5 ug/ml) + test article 0.01 uM, Mean
[4] = PBMC + LPS(5 ug/ml) + test article 0.01 uM, single replicates
[5] = PBMC + LPS(5 ug/ml) + test article 0.1 uM, Mean
[6] = PBMC + LPS(5 ug/ml) + test article 0.1 uM, single replicates
[7] = PBMC + LPS(5 ug/ml) + test article 1 uM, Mean
[8] = PBMC + LPS(5 ug/ml) + test article 1 uM, single replicates
[9] = PBMC + LPS(5 ug/ml) + test article 10 uM, Mean
[10] = PBMC + LPS(5 ug/ml) + test article 10 uM, single replicates
[11] = PBMC + LPS(5 ug/ml) + test article 100 uM, Mean
[12] = PBMC + LPS(5 ug/ml) + test article 100 uM, single replicates
[13] = PBMC + test article 0.01 uM, no LPS, Mean
[14] = PBMC + test article 0.01 uM, no LPS, single replicates
[15] = PBMC + test article 0.1 uM, no LPS, Mean
[16] = PBMC + test article 0.1 uM, no LPS, single replicates
[17] = PBMC + test article 1 uM, no LPS, Mean
[18] = PBMC + test article 1 uM, no LPS, single replicates
[19] = PBMC + test article 10 uM, no LPS, Mean
[20] = PBMC + test article 10 uM, no LPS, single replicates
[21] = PBMC + test article 100 uM, no LPS, Mean
[22] = PBMC + test article 100 uM, no LPS, single replicates

CC(C)C[C@H](NC(=O)CNC(=O)[C@H](CC(=O)O)NC(=O)[C@H](CCC(N)=O)NC(=O)CNC(=O)[C@@H]1C[C@@H](O)CN1)C(=O)N[C@@H](C)C(=O)NCC(=O)N1CCC[C@H]1C(=O)N[C@@H](CCCCN)C(=O)O [YY-101] (H-[Hyp]GQDGLAGPK-OH; N-terminus and C-terminus assumed)
Concentration [1]: 7614.6 pg/mL | MFI [1]: 1976.7 | conc/live cell [1]: 1188.6 pg/10^5 | Concentration [2]: 7907.5 pg/mL and 7935.5 pg/mL and 7000.7 pg/mL | MFI [2]: 2055.5 and 2063.0 and 1811.5 | conc/live cell [2]: 1387.3 pg/10^5 and 1117.7 pg/10^5 and 1060.7 pg/10^5 | Concentration [3]: 8390.1 pg/mL | MFI [3]: 2184.3 | conc/live cell [3]: 1361.7 pg/10^5 | Concentration [4]: 8405.7 pg/mL and 8552.3 pg/mL and 8212.4 pg/mL | MFI [4]: 2188.5 and 2227.5 and 2137.0 | conc/live cell [4]: 1313.4 pg/10^5 and 1425.4 pg/10^5 and 1346.3 pg/10^5 | Concentration [5]: 8511.2 pg/mL | MFI [5]: 2216.5 | conc/live cell [5]: 1463.1 pg/10^5 | Concentration [6]: 8266.8 pg/mL and 8740.8 pg/mL and 8526.0 pg/mL | MFI [6]: 2151.5 and 2277.5 and 2220.5 | conc/live cell [6]: 1333.4 pg/10^5 and 1680.9 pg/10^5 and 1375.2 pg/10^5 | Concentration [7]: 7838.4 pg/mL | MFI [7]: 2036.8 | conc/live cell [7]: 1203.9 pg/10^5 | Concentration [8]: 8218.0 pg/mL and 7821.7 pg/mL and 7475.4 pg/mL | MFI [8]: 2138.5 and 2032.5 and 1939.5 | conc/live cell [8]: 1304.4 pg/10^5 and 1101.6 pg/10^5 and 1205.7 pg/10^5 | Concentration [9]: 8659.2 pg/mL | MFI [9]: 2255.8 | conc/live cell [9]: 1311.5 pg/10^5 | Concentration [10]: 8518.5 pg/mL and 8816.3 pg/mL and 8642.7 pg/mL | MFI [10]: 2218.5 and 2297.5 and 2251.5 | conc/live cell [10]: 1419.7 pg/10^5 and 1377.5 pg/10^5 and 1137.2 pg/10^5 | Concentration [11]: 12179.5 pg/mL | MFI [11]: 3163.2 | conc/live cell [11]: 2105.8 pg/10^5 | Concentration [12]: 12944.3 pg/mL and 11783.1 pg/mL and 11811.0 pg/mL | MFI [12]: 3353.5 and 3064.5 and 3071.5 | conc/live cell [12]: 2054.7 pg/10^5 and 1900.5 pg/10^5 and 2362.2 pg/10^5 | Concentration [13]: 5.5 pg/mL | MFI [13]: 2.5 | conc/live cell [13]: 0.6 pg/10^5 | Concentration [14]: 5.5 pg/mL | MFI [14]: 0.5 and 4.5 | conc/live cell [14]: 0.0 pg/10^5 and 1.2 pg/10^5 | MFI [15]: 1.5 | conc/live cell [15]: 0.0 pg/10^5 | MFI [16]: 1.5 | conc/live cell [16]: 0.0 pg/10^5 | MFI [17]: 2.0 | conc/live cell [17]: 0.0 pg/10^5 | MFI [18]: 3.5 and 0.5 | conc/live cell [18]: 0.0 pg/10^5 | Concentration [19]: 122.9 pg/mL | MFI [19]: 13.0 | conc/live cell [19]: 9.6 pg/10^5 | Concentration [20]: 122.9 pg/mL | MFI [20]: 23.5 and 2.5 | conc/live cell [20]: 19.2 pg/10^5 and 0.0 pg/10^5 | Concentration [21]: 159.6 pg/mL | MFI [21]: 31.5 | conc/live cell [21]: 24.7 pg/10^5 | Concentration [22]: 278.4 pg/mL and 40.7 pg/mL | MFI [22]: 53.5 and 9.5 | conc/live cell [22]: 43.5 pg/10^5 and 5.8 pg/10^5 | LPS-induced IL-I3 levels (in words) (at 100.iM, LPS 5 ug/mL 24 hrs): further increased

Reference: patent US20230146455A1, “TREATMENT OF INFLAMMATORY DISEASES WITH PEPTIDES AND PHARMACEUTICAL COMPOSITIONS” (Yuyu Pharma, Inc., priority 2020, published 2023)
